Source: US8658697B2 (priority 2004, dated 2014)

Columns and labels:
[1] = system: Tacaribe virus (TRVL 11573); assay: microbe, parasite or virus in culture; assay type: cell-based; conditions: Mammarenavirus tacaribeense, Vero, read-out: Tacaribe EC50
Candide I = assay: microbe, parasite or virus in culture; assay type: cell-based, Junin virus (vaccine strain); conditions: Mammarenavirus juninense, read-out: Candide I
[2] = system: Pichinde pseudotyped virus; assay: microbe, parasite or virus in culture; assay type: cell-based; conditions: read-out: EC50 vs. pseudotyped virus (μM) Pichinde
[3] = system: Tacaribe pseudotyped virus; assay: microbe, parasite or virus in culture; assay type: cell-based; conditions: Mammarenavirus tacaribeense, read-out: EC50 vs. pseudotyped virus (μM) Tacaribe
[4] = system: Guanarito pseudotyped virus; assay: microbe, parasite or virus in culture; assay type: cell-based; conditions: Mammarenavirus guanaritoense, read-out: EC50 vs. pseudotyped virus (μM) Guanarito
Candid-1 vaccine virus = assay: microbe, parasite or virus in culture; assay type: cell-based, Junin virus (vaccine strain); conditions: Mammarenavirus juninense, Vero, 168 h, read-out: Candid 1 EC50
VSV pseudotyped virus = assay: microbe, parasite or virus in culture; assay type: cell-based; conditions: Vesicular stomatitis virus, read-out: EC50 vs. pseudotyped virus (μM) VSV
Tacaribe virus = assay: microbe, parasite or virus in culture; assay type: cell-based; conditions: Mammarenavirus tacaribeense, Vero, 168 h, read-out: Tacaribe EC50
[5] = system: Machupo pseudotyped virus; assay: microbe, parasite or virus in culture; assay type: cell-based; conditions: Mammarenavirus machupoense, read-out: EC50 vs. pseudotyped virus (μM) Machupo
[6] = in vivo; cited from earlier work

Row | SMILES | EC50 [1] [nM] | EC50 (Candide I) [nM] | EC50 [2] [µM] | EC50 [3] [µM] | EC50 [4] [µM] | EC50 (Candid-1 vaccine virus) [nM] | EC50 (VSV pseudotyped virus) [µM] | EC50 (Tacaribe virus) [nM] | EC50 [5] [µM] | adverse effects [6]
1 | Cc1nn(C)c(Cl)c1S(=O)(=O)NNC(=O)NC(C)(C(F)(F)F)C(F)(F)F [Example 21, N-2-(1,1,1,3,3,3-Hexafluoro-2-methylpropyl)-2-[2-(5-chloro-1,3-dimethyl-1H-pyrazolyl)sulfonyl]hydrazine-1-carboxamide] | 500 to 1000 | 1000 to 5000 |  |  |  |  |  |  |  | 
2 | CC(=O)c1ccc(S(=O)(=O)NNC(=O)NC(C)(C(F)(F)F)C(F)(F)F)cc1 [Example 39, N-2-(1,1,1,3,3,3-Hexafluoro-2-methylpropyl)-2-[(4-acetylphenyl)sulfonyl]hydrazine-1-carboxamide] | 1000 to 5000 | > 5000 |  |  |  |  |  |  |  | 
3 | Cc1cccc(NC(=O)NC(C)(C(F)(F)F)C(F)(F)F)c1 [Example 86, 1-(3-Methylphenyl)-3-(2,2,2-trifluoro-1-methyl-1-trifluoromethylethyl)-urea] | > 5000 |  |  |  |  |  |  |  |  | 
4 | CC(NC(=O)Nc1ccc(S(N)(=O)=O)cc1)(C(F)(F)F)C(F)(F)F [Example 87, 4-[3-(1,1-Bis-trifluoromethylethyl)-ureido]benzenesulfonamide] | > 5000 |  |  |  |  |  |  |  |  | 
5 | CC(NC(=O)Nc1c(Br)cccc1Br)(C(F)(F)F)C(F)(F)F [Example 88, 1-(2,6-Dibromophenyl)-3-(2,2,2-trifluoro-1-methyl-1-trifluoromethylethyl)-urea] | > 5000 |  |  |  |  |  |  |  |  | 
6 | Cc1ccccc1NC(=O)NC(C)(C(F)(F)F)C(F)(F)F [Example 89, 1-(2-Methylphenyl)-3-(2,2,2-trifluoro-1-methyl-1-trifluoromethylethyl)-urea] | > 5000 |  |  |  |  |  |  |  |  | 
7 | Cc1ccc(NC(=O)NC(C)(C(F)(F)F)C(F)(F)F)cc1 [Example 90, 1-(4-Methylphenyl)-3-(2,2,2-trifluoro-1-methyl-1-trifluoromethylethyl)-urea] | > 5000 |  |  |  |  |  |  |  |  | 
8 | CC(NC(=O)N1CCCC1)(C(F)(F)F)C(F)(F)F [Example 91, 1-Pyrrolidinyl-1-(2,2,2-trifluoro-1-methyl-1-trifluoromethylethyl)-carboxamide] | > 5000 |  |  |  |  |  |  |  |  | 
9 | CC(NC(=O)Nc1ccc(F)cc1)(C(F)(F)F)C(F)(F)F [Example 92, 1-(4-Fluorophenyl)-3-(2,2,2-trifluoro-1-methyl-1-trifluoromethylethyl)-urea] | > 5000 |  |  |  |  |  |  |  |  | 
10 | CC(NC(=O)Nc1ccc(Br)cc1Br)(C(F)(F)F)C(F)(F)F [Example 93, 1-(2,4-Dibromophenyl)-3-(2,2,2-trifluoro-1-methyl-1-trifluoromethylethyl)-urea] | > 5000 |  |  |  |  |  |  |  |  | 
11 | CC(NC(=O)N1CCCCCC1)(C(F)(F)F)C(F)(F)F [Example 94, Azepane-1-carboxylic acid (2,2,2-trifluoro-1-methyl-1-trifluoromethylethyl)-amide] | > 5000 |  |  |  |  |  |  |  |  | 
12 | CC(NC(=O)Nc1ccc(Br)cc1OC(F)(F)F)(C(F)(F)F)C(F)(F)F [Example 95, 1-(4-Bromo-2-trifluoromethoxyphenyl)-3-(2,2,2-trifluoro-1-methyl-1-trifluoromethylethyl)-urea] | > 5000 |  |  |  |  |  |  |  |  | 
13 | CC(NC(=O)Nc1ccccc1OC(F)(F)F)(C(F)(F)F)C(F)(F)F [Example 96, 1-(2-Trifluoromethoxyphenyl)-3-(2,2,2-trifluoro-1-methyl-1-trifluoromethylethyl)-urea] | > 5000 |  |  |  |  |  |  |  |  | 
14 | COc1ccccc1NC(=O)NC(C)(C(F)(F)F)C(F)(F)F [Example 98, 1-(2-Methoxyphenyl)-3-(2,2,2-trifluoro-1-methyl-1-trifluoromethylethyl)-urea] | > 5000 |  |  |  |  |  |  |  |  | 
15 | CCC(NC(=O)NNC(=O)c1cc(OCC(F)(F)F)ccc1OCC(F)(F)F)(C(F)(F)F)C(F)(F)F [Example 99, 2-[2,5-bis(2,2,2-trifluoroethoxy)benzoyl]-N-[1,1-bis(trifluoromethyl)propyl]hydrazinecarboxamide] |  |  | 1 to 5 | < 0.5 | 1 to 5 | > 5000 | > 5 | < 500 | 0.5 to 1 | 
16 | CCC(NC(=O)NNC(=O)c1ccc(C(C)(C)C)cc1)(C(F)(F)F)C(F)(F)F [Example 100, N-[1,1-bis(trifluoromethyl)propyl]-2-(4-tert-butylbenzoyl)hydrazinecarboxamide] |  |  | 1 to 5 | < 0.5 | < 0.5 | 1000 to 5000 | > 5 | < 500 | < 0.5 | 
17 | CCC(NC(=O)NNC(=O)c1ccc(-c2ccccc2)cc1)(C(F)(F)F)C(F)(F)F [Example 101, 2-(1,1′-biphenyl-4-ylcarbonyl)-N-[1,1-bis(trifluoromethyl)propyl] hydrazinecarboxamide] |  |  | 0.5 to 1 | < 0.5 | < 0.5 | 1000 to 5000 | > 5 | < 500 | < 0.5 | 
18 | CCC(NC(=O)NNC(=O)c1cccc2ccccc12)(C(F)(F)F)C(F)(F)F [Example 102, N-[1,1-bis(trifluoromethyl)propyl]-2-(1-naphthoyl)hydrazinecarboxamide] |  |  | 1 to 5 | < 0.5 | 1 to 5 | > 5000 | > 5 | < 500 | < 0.5 | 
19 | CCC(NC(=O)NNC(=O)c1ccccc1-c1ccccc1)(C(F)(F)F)C(F)(F)F [Example 103] |  |  | 1 to 5 | < 0.5 | < 0.5 | 1000 to 5000 | > 5 | 500 to 1000 | < 0.5 | 
20 | CCC(NC(=O)NNC(=O)c1ccc(C)cc1)(C(F)(F)F)C(F)(F)F [Example 104, N-[1,1-bis(trifluoromethyl)propyl]-2-(4-methylbenzoyl)hydrazinecarboxamide] |  |  | 1 to 5 | < 0.5 | < 0.5 | > 5000 | > 5 | 500 to 1000 | < 0.5 | 
21 | CCC(NC(=O)NNC(=O)c1ccc2ccccc2c1)(C(F)(F)F)C(F)(F)F [Example 105, N-[1,1-bis(trifluoromethyl)propyl]-2-(2-naphthoyl)hydrazinecarboxamide] |  |  | 1 to 5 | < 0.5 | < 0.5 | 1000 to 5000 | > 5 | < 500 | < 0.5 | 
22 | CCC(NC(=O)NNC(=O)c1cc(OC)ccc1OC)(C(F)(F)F)C(F)(F)F [Example 106, N-[1,1-bis(trifluoromethyl)propyl]-2-(2,5-dimethoxybenzoyl)hydrazinecarboxamide] |  |  | > 5 | < 0.5 | < 0.5 | 1000 to 5000 | > 5 | < 500 | < 0.5 | 
23 | CCC(NC(=O)NNC(=O)c1ccc(Cl)c(Cl)c1)(C(F)(F)F)C(F)(F)F [Example 107, N-[1,1-bis(trifluoromethyl)propyl]-2-(3,4-dichlorobenzoyl)hydrazinecarboxamide] |  |  | 1 to 5 | < 0.5 | < 0.5 | 1000 to 5000 | > 5 | 500 to 1000 | < 0.5 | 
24 | CCC(NC(=O)NNC(=O)c1ccc(Br)cc1)(C(F)(F)F)C(F)(F)F [Example 108, N-[1,1-bis(trifluoromethyl)propyl]-2-(4-bromobenzoyl)hydrazinecarboxamide] |  |  | 1 to 5 | < 0.5 | < 0.5 | 1000 to 5000 | > 5 | 500 to 1000 | < 0.5 | 
25 | CCC(NC(=O)NNC(=O)c1ccc(C(C)C)cc1)(C(F)(F)F)C(F)(F)F [Example 109, N-[1,1-bis(trifluoromethyl)propyl]-2-(4-isopropylbenzoyl)hydrazinecarboxamide] |  |  | > 5 | < 0.5 | < 0.5 | 1000 to 5000 | > 5 | < 500 | < 0.5 | 
26 | CCC(NC(=O)NNC(=O)c1cc(C)cc(C)c1)(C(F)(F)F)C(F)(F)F [Example 110, N-[1,1-bis(trifluoromethyl)propyl]-2-(3,5-dimethylbenzoyl)hydrazinecarboxamide] |  |  | 1 to 5 | < 0.5 | 0.5 to 1 | 1000 to 5000 | > 5 | < 500 | < 0.5 | 
27 | CCC(NC(=O)NNC(=O)c1c(C)cc(C)cc1C)(C(F)(F)F)C(F)(F)F [Example 111, N-[1,1-bis(trifluoromethyl)propyl]-2-(mesitylcarbonyl)hydrazinecarboxamide] |  |  | 1 to 5 | < 0.5 | 0.5 to 1 |  | > 5 | 1000 to 5000 | < 0.5 | 
28 | CCC(NC(=O)NNC(=O)c1cc(Cl)ccc1OC)(C(F)(F)F)C(F)(F)F [Example 112, N-[1,1-bis(trifluoromethyl)propyl]-2-(5-chloro-2-methoxybenzoyl)hydrazinecarboxamide] |  |  | 1 to 5 | < 0.5 | < 0.5 | > 5000 | > 5 | < 500 | < 0.5 | 
29 | NC(=O)c1ncn([C@@H]2O[C@H](CO)[C@@H](O)[C@H]2O)n1 [ribavirin, Ribavirin] |  |  |  |  |  |  |  |  |  | dose-related, reversible hemolytic anemia
